How the values were obtained:
Botrytis cinerea = test: In vitro antifungal activity, 96-well microtiter plates; format: cell-based; details: 1.25 ppm natamycin, 25° C.
Method: The following compositions were tested: […] After incubation of the microtiter plates at 25° C., the in vitro antifungal activity (%) of the individual active ingredients was assessed by calculating the reduction in mould growth observed in the presence of the active ingredient in comparison to the mould growth observed in the absence of the active ingredient. The expected antifungal activity (E in %) of the active ingredient combination was calculated according to the Colby equation (Colby, 1967): […] wherein X and Y are the observed antifungal activities (in %) of the individual active ingredients X and Y, respectively.

Penicillium italicum = test: as above; format: cell-based; details: 0.63 ppm natamycin, 5.0 ppm vinclozolin, 10 ppm procymidone, alone or natamycin + one of them, 25° C., day 3
Method: Subsequently, 100 μl of a Botrytis cinerea suspension prepared in PCB medium was used to inoculated each well with 2.5×10^3 spores/ml.
After incubation of the microtiter plates at 25° C., the in vitro antifungal activity (%) of the individual active ingredients was assessed by calculating the reduction in mould growth observed in the presence of the active ingredient in comparison to the mould growth observed in the absence of the active ingredient. The expected antifungal activity (E in %) of the active ingredient combination was calculated according to the Colby equation (Colby, 1967): […]
wherein X and Y are the observed antifungal activities (in %) of the individual active ingredients X and Y, respectively. If the observed antifungal activity (O in %) of the combination exceeds the expected antifungal activity (E in %) of the combination and the resulting synergy factor O/E is thus >1.0, the combined application of the active ingredients leads to a synergistic antifungal effect.
The experiment was conducted as described in Example 10, except for the fact that the following compositions were tested:
Furthermore, Penicillium italicum was used for inoculation. The antifungal activity (in %) of the individual and combined active ingredients was determined according to the method described in Example 10.

SMILES	Observed antifungal activity O (%) (Botrytis cinerea; 1.5 ppm vinclozolin, 1.25 ppm procymidone, alone or natamycin + one of them, day 3)	Observed antifungal activity O (%) (Botrytis cinerea; 1.5 ppm vinclozolin, 1.25 ppm procymidone, alone or natamycin + one of them, day 6)	Observed antifungal activity O (%) (Botrytis cinerea; 7.0 ppm vinclozolin, 2.0 ppm procymidone, alone or natamycin + one of them, day 10)	Observed antifungal activity O (%) (Penicillium italicum)	Observed antifungal activity O (%) (Botrytis cinerea; 3.0 ppm iprodione or both, day 5)	Observed antifungal activity O (%) (Botrytis cinerea; 8.0 ppm iprodione or both, day 12)
C=CC1(C)OC(=O)N(c2cc(Cl)cc(Cl)c2)C1=O (stereo not drawn) [Vinclozolin, vinclozolin]	0	0	0	0	–	–
CC(C)NC(=O)N1CC(=O)N(c2cc(Cl)cc(Cl)c2)C1=O [Iprodione, iprodione]	–	–	–	–	50	50

Reference: patent US20130324489A1, “NEW ANTIFUNGAL COMPOSITIONS” (DSM IP ASSETS B.V., priority 2011, published 2013)
